Laboratory results taken from patent publication US9598440B2, “Inhibitors of IRAK4 activity” (MERCK SHARP & DOHME CORP., priority 2012, dated 2017).

The molecules below were run against IRAK4 (Homo sapiens (Human), UniProt Q9NWZ3) (assay: Determination of IRAK4 kinase activity (IMAP fluorescence polarization, phosphorylation of fluorescent peptide substrate)). Conditions: 0.5 nM GST tagged IRAK4, 100 nM peptide substrate RP7030, 100 μM ATP, 30 minutes at 25° C.
Format: biochemical
Protocol: The kinase activity of IRAK4 is determined by its ability to catalyze the phosphorylation of a fluorescent polypeptide substrate. The extent of phosphorylation is measured using IMAP technology (Molecular Devices) where the phosphorylated fluorescent substrate binds to the large M(III)-based nanoparticles which reduces the rotational speed of the substrate and thus increases its fluorescent polarization (FP).
Procedure: A 20 μl reaction mixture contains 10 mM TriHCl, pH 7.2, 0.5 nM GST tagged IRAK4 (SignalChem), 100 nM fluorescent peptide substrate (RP7030, Molecular Devices), 100 μM ATP, 1 mM DTT, 1 mM MgCl2, and 0.01% Tween 20. The reaction is initiated by the addition of ATP. After incubation for 30 minutes at 25° C., 60 μl of Progressive IMAP Reagent (Molecular Devices) is added to stop the reaction. Change in RP7030's FP is determined by a FP reader (Analyst HT, LJL BioSystems). Analytical LCMS Conditions: • Condition A: Phenomenex Luna C18 (4.6×250 mm), 95:5 to 5:95 water:MeCN (0.05% TFA), over 10 min, hold 6 min. • Condition B: Agilent SBC (3.0×50 mm), solvent A: H20-0.1% TFA; • solvent B: ACN-0.1% TFA; GRADIENT TABLE: 0 min:10% B, 0.3 min: 10% B, 1.5 min: 95% B, 2.70 min: 95% B, 2.76 min: 10% B, stop time 3.60 min.

Chain of IRAK4 (Q9NWZ3 whole entry): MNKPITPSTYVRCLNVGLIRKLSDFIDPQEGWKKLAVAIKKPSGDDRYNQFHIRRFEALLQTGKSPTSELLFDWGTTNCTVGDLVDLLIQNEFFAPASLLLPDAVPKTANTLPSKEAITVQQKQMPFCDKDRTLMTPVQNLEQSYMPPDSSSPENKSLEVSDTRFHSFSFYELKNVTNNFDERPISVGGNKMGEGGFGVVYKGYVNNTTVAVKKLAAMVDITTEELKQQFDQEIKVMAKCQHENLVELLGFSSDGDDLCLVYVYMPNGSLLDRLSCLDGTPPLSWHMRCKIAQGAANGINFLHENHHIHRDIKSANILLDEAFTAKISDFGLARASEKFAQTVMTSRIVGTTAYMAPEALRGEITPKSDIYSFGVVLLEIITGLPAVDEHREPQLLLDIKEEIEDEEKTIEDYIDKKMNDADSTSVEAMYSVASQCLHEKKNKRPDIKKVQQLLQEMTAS

SMILES | IC50
CN1CCCC(Nc2ncc(-c3nc4ccccc4s3)c(N[C@@H]3C[C@H](CO)[C@@H](O)[C@H]3O)n2)C1 (mixture of isomers) [Example 32, (1R,2S,3R,5R)-3-((5-(benzo[d]thiazol-2-yl)-2-(((RS)-1-methylpiperidin-3-yl)amino)pyrimidin-4-yl)amino)-5-(hydroxymethyl)cyclopentane-1,2-diol] | 934 nM
OC[C@H]1C[C@@H](Nc2nc(NC3CCCOC3)ncc2-c2nc3ccccc3s2)[C@H](O)[C@@H]1O (mixture of isomers) [Example 49, (1R,2S,3R,5R)-3-((5-(benzo[d]thiazol-2-yl)-2-(((RS)-tetrahydro-2H-pyran-3-yl)amino)pyrimidin-4-yl)amino)-5-(hydroxymethyl)cyclopentane-1,2-diol] | 1470 nM
CC(C)Oc1cc(Nc2ncc(-c3nc4ccccc4s3)c(N[C@@H]3CC(C(C)(C)O)[C@@H](O)[C@H]3O)n2)ccn1 (stereo in doubt) [Example 116, 5-(benzo[d]thiazol-2-yl)-6-(((1R,2S,3R,4R)-2,3-dihydroxy-4-(2-hydroxypropan-2-yl)cyclopentyl)amino)-2-((2-isopropoxypyridin-4-yl)amino)pyrimidine] | 19 nM
COc1cccc(Nc2ncc(-c3nc4ccccc4s3)c(N[C@@H]3CC(C(C)(C)O)[C@@H](O)[C@H]3O)n2)c1 (stereo in doubt) [Example 117, 5-(benzo[d]thiazol-2-yl)-6-(((1R,2S,3R,4R)-2,3-dihydroxy-4-(2-hydroxypropan-2-yl)cyclopentyl)amino)-2-((3-methoxyphenyl)amino)pyrimidine] | 20 nM
Cc1cccc(Nc2ncc(-c3nc4ccccc4s3)c(N[C@@H]3CC(C(C)(C)O)[C@@H](O)[C@H]3O)n2)c1 (stereo in doubt) [Example 118, 5-(benzo[d]thiazol-2-yl)-6-(((1R,2S,3R,4R)-2,3-dihydroxy-4-(2-hydroxypropan-2-yl)cyclopentyl)amino)-2-(m-tolylamino)pyrimidine] | 16 nM
CC(C)(O)C1C[C@@H](Nc2nc(Nc3ccnc(C(F)(F)F)c3)ncc2-c2nc3ccccc3s2)[C@H](O)[C@@H]1O (stereo in doubt) [Example 120, 5-(benzo[d]thiazol-2-yl)-6-(((1R,2S,3R,4R)-2,3-dihydroxy-4-(2-hydroxypropan-2-yl)cyclopentyl)amino)-2-((2-(trifluoromethyl)pyridin-4-yl)amino)pyrimidine] | 10 nM
CC(C)(O)C1C[C@@H](Nc2nc(Nc3cc(F)cc(F)c3)ncc2-c2nc3ccccc3s2)[C@H](O)[C@@H]1O (stereo in doubt) [Example 122, 5-(benzo[d]thiazol-2-yl)-2-((3,5-difluorophenyl)amino)-6-(((1R,2S,3R,4R)-2,3-dihydroxy-4-(2-hydroxypropan-2-yl)cyclopentyl)amino)pyrimidine] | 163 nM
COc1cc(Nc2ncc(-c3ccc4cccc(C)c4n3)c(N[C@@H]3CC(C(C)(C)O)[C@@H](O)[C@H]3O)n2)ccn1 (stereo in doubt) [Example 123, 6-(((1R,2S,3R,4R)-2,3-dihydroxy-4-(2-hydroxypropan-2-yl)cyclopentyl)amino)-2-((2-methoxypyridin-4-yl)amino)-5-(8-methylquinolin-2-yl)pyrimidine] | 712 nM
COc1ccc(Nc2ncc(-c3nc4ccccc4s3)c(N[C@@H]3CC(C(C)(C)O)[C@@H](O)[C@H]3O)n2)c(OC)c1 (stereo in doubt) [Example 125, 5-(benzo[d]thiazol-2-yl)-6-(((1R,2S,3R,4R)-2,3-dihydroxy-4-(2-hydroxypropan-2-yl)cyclopentyl)amino)-2-((2,4-dimethoxyphenyl)amino)pyrimidine] | 60 nM
COc1cc(Nc2ncc(-c3nc4ccccc4s3)c(N[C@@H]3CC(C(C)(C)O)[C@@H](O)[C@H]3O)n2)ccn1 (stereo in doubt) [Example 126, 5-(benzo[d]thiazol-2-yl)-6-(((1R,2S,3R,4R)-2,3-dihydroxy-4-(2-hydroxypropane-2-yl)cyclopentyl)amino)-2-((2-methoxypyridin-4-yl)amino)pyrimidine] | 9 nM
Cc1cc(Nc2ncc(-c3nc4cnccc4s3)c(N[C@@H]3CC(C(C)(C)O)[C@@H](O)[C@H]3O)n2)cc(C)n1 (stereo in doubt) [Example 137, 6-(((1R,2S,3R,4R)-2,3-dihydroxy-4-(2-hydroxypropan-2-yl)cyclopentyl)amino)-2-((2,6-dimethylpyridin-4-yl)amino)-5-(thiazolo[4,5-c]pyridin-2-yl)pyrimidine] | 0.2 nM
Cc1cc(Nc2cc(N[C@H]3C[C@@H](C(C)(C)O)[C@H](O)[C@@H]3O)c(-c3nc(C)cs3)cn2)cc(C)n1 (stereo in doubt) [Example 162, (1S,2R,3S,5R)-3-((2-((2,6-dimethylpyridin-4-yl)amino)-5-(4-methylthiazol-2-yl)pyridin-4-yl)amino)-5-(2-hydroxypropan-2-yl)cyclopentane-1,2-diol] | 37 nM

More lines, in order of falling IC50, values ahead:

IC50 | SMILES
3270 nM | OC[C@H]1C[C@@H](Nc2nc(NC3CCCNC3)ncc2-c2nc3ccccc3s2)[C@H](O)[C@@H]1O (mixture of isomers) [Example 47, (1R,2S,3R,5R)-3-((5-(benzo[d]thiazol-2-yl)-2-((RS)-piperidin-3-ylamino)pyrimidin-4-yl)amino)-5-(hydroxymethyl)cyclopentane-1,2-diol]
1580 nM | OC[C@H]1C[C@@H](Nc2nc(NC3CCOC3)ncc2-c2nc3ccccc3s2)[C@H](O)[C@@H]1O (mixture of isomers) [Example 48, (1R,2S,3R,5R)-3-((5-(benzo[d]thiazol-2-yl)-2-(((RS)-tetrahydrofuran-3-yl)amino)pyrimidin-4-yl)amino)-5-(hydroxymethyl)cyclopentane-1,2-diol]
1380 nM | OC[C@H]1C[C@@H](Nc2nc(NC3CCNC3)ncc2-c2nc3ccccc3s2)[C@H](O)[C@@H]1O (mixture of isomers) [Example 51, (1R,2S,3R,5R)-3-((5-(benzo[d]thiazol-2-yl)-2-((RS)-pyrrolidin-3-ylamino)pyrimidin-4-yl)amino)-5-(hydroxymethyl)cyclopentane-1,2-diol]
386 nM | CC(C)(O)C1C[C@@H](Nc2nc(Nc3cccc(C(F)(F)F)c3)ncc2-c2nc3ccccc3s2)[C@H](O)[C@@H]1O (stereo in doubt) [Example 121, 5-(benzo[d]thiazol-2-yl)-6-(((1R,2S,3R,4R)-2,3-dihydroxy-4-(2-hydroxypropan-2-yl)cyclopentyl)amino)-2-((3-(trifluoromethyl)phenyl)amino)pyrimidine]
36 nM | CC(C)(O)C1C[C@@H](Nc2nc(Nc3cccc(C#N)c3)ncc2-c2nc3ccccc3s2)[C@H](O)[C@@H]1O (stereo in doubt) [Example 115, 5-(benzo[d]thiazol-2-yl)-2-((3-cyanophenyl)amino)-6-(((1R,2S,3R,4R)-2,3-dihydroxy-4-(2-hydroxypropan-2-yl)cyclopentyl)amino)pyrimidine]
16 nM | CC(C)(O)C1C[C@@H](Nc2nc(Nc3ccccc3)ncc2-c2nc3ccccc3s2)[C@H](O)[C@@H]1O (stereo in doubt) [Example 119, 5-(benzo[d]thiazol-2-yl)-6-(((1R,2S,3R,4R)-2,3-dihydroxy-4-(2-hydroxypropan-2-yl)cyclopentyl)amino)-2-(phenylamino)pyrimidine]
4 nM | COc1cc(Nc2ncc(-c3ccc4ccccc4n3)c(N[C@@H]3CC(C(C)(C)O)[C@@H](O)[C@H]3O)n2)ccn1 (stereo in doubt) [Example 112, 6-(((1R,2S,3R,4R)-2,3-dihydroxy-4-(2-hydroxypropan-2-yl)cyclopentyl)amino)-2-((2-methoxypyridin-4-yl)amino)-5-(quinolin-2-yl)pyrimidine]
0.7 nM | COc1cc(Nc2ncc(-c3nc4cnccc4s3)c(N[C@@H]3CC(C(C)(C)O)[C@@H](O)[C@H]3O)n2)ccn1 (stereo in doubt) [Example 136, 6-(((1R,2S,3R,4R)-2,3-dihydroxy-4-(2-hydroxypropan-2-yl)cyclopentyl)amino)-2-((2-methoxypyridin-4-yl)amino)-5-(thiazolo[4,5-c]pyridin-2-yl)pyrimidine]
0.5 nM | Cc1cc(Nc2ncc(-c3nc4c(C)nccc4s3)c(N[C@@H]3CC(C(C)(C)O)[C@@H](O)[C@H]3O)n2)cc(C)n1 (stereo in doubt) [Example 138, 6-(((1R,2S,3R,4R)-2,3-dihydroxy-4-(2-hydroxypropan-2-yl)cyclopentyl)amino)-2-((2,6-dimethylpyridin-4-yl)amino)-5-(4-methylthiazolo[4,5-c]pyridin-2-yl)pyrimidine]
0.2 nM | Cc1cc(Nc2ncc(-c3ccc4ccccc4n3)c(N[C@@H]3CC(C(C)(C)O)[C@@H](O)[C@H]3O)n2)cc(C)n1 (stereo in doubt) [Example 111, 6-(((1R,2S,3R,4R)-2,3-dihydroxy-4-(2-hydroxypropan-2-yl)cyclopentyl)amino)-2-((2,6-dimethylpyridin-4-yl)amino)-5-(quinolin-2-yl)pyrimidine]
